Experimental data: ChEMBL document CHEMBL1201862, “PubChem BioAssay data set” (2004)
Values joined by “and” are separate entries in the source; they are usually repeats but may differ in a detail not shown here. Identical values can stand only once.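 Step 1: Grow cells in 96-well plates. Step 2: Expose to compound for 48 hours at 5 concentrations. Step 3: Interpolate endpoints linearly; if unreached, use highest concentration. The concentration for 50% growth inhibition is given as GI50.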 Active and inactive are the calls of the source. No stated cut-off is given here; in the data, active = GI50 up to about 1.1 µM and inactive = higher. Starred links: 1 amine or outer side, 2 acyl side, 3 side chain; linkers in the order of their positions; H or OH if unused. *1 amine or outer side, *2 acyl side, *3 side chain or, on linkers, in order; H or OH if unused. Positions of bridges follow the written chain, without caps; N, C: chain ends. Where a SMILES comes first, the peptide text is derived from it. Non-standard residues stand in square brackets, D forms with d. Residues, ends and D or L forms follow the SMILES beside them. Bridges are numbered along the chain shown (N, C = ends). Roman numbers before positions name the chains, in order. Chains are numbered I, II in the order given. [ ]: non-standard residue; d: D form. Actinocin(1to9) = Cc1c2oc3c(C)ccc(C(=O)[*:2])c3nc-2c(C(=O)[*:1])c(N)c1=O; Actinocin(9to1) = Cc1c2oc3c(C)ccc(C(=O)[*:1])c3nc-2c(C(=O)[*:2])c(N)c1=O; NMeY = CN[CH](Cc1ccc(O)cc1)C(=O)O; Sar = CNCC(=O)O

Tests used:
Assay in all cases: NCI tumour cell line growth inhibition, 48 h
IGROV-1 = tested on: IGROV-1
SK-MEL-5 = tested on: SK-MEL-5
HT-29 = tested on: HT-29
SNB-19 = tested on: SNB-19
PC-3 = tested on: PC-3
HCC 2998 = tested on: HCC 2998
SR = tested on: SR
OVCAR-8 = tested on: OVCAR-8
NCI-H460 = tested on: NCI-H460
COLO 205 = tested on: COLO 205
OVCAR-3 = tested on: OVCAR-3
HOP-92 = tested on: HOP-92
786-0 = tested on: 786-0
RXF 393 = tested on: RXF 393
CAKI-1 = tested on: CAKI-1
SK-OV-3 = tested on: SK-OV-3
Hs-578T = tested on: Hs-578T
MDA-N = tested on: MDA-N
U-251 = tested on: U-251
UO-31 = tested on: UO-31
MOLT-4 = tested on: MOLT-4
HL-60 = tested on: HL-60
BT-549 = tested on: BT-549
SK-MEL-28 = tested on: SK-MEL-28
OVCAR-4 = tested on: OVCAR-4
SF-539 = tested on: SF-539
SNB-75 = tested on: SNB-75
Malme-3M = tested on: Malme-3M
UACC-62 = tested on: UACC-62
RPMI-8226 = tested on: RPMI-8226
DU-145 = tested on: DU-145
UACC-257 = tested on: UACC-257
SF-295 = tested on: SF-295
HOP-62 = tested on: HOP-62
A549 = tested on: A549
ACHN = tested on: ACHN
NCI-H226 = tested on: NCI-H226
MDA-MB-435 = tested on: MDA-MB-435
KM12 = tested on: KM12
A498 = tested on: A498
NCI-H23 = tested on: NCI-H23
SW-620 = tested on: SW-620
SN12C = tested on: SN12C
T47D = tested on: T47D
NCI-H522 = tested on: NCI-H522
SK-MEL-2 = tested on: SK-MEL-2
SF-268 = tested on: SF-268
MCF7 = tested on: MCF7
LOX IMVI = tested on: LOX IMVI
OVCAR-5 = tested on: OVCAR-5
K562 = tested on: K562
EKVX = tested on: EKVX
HCT-116 = tested on: HCT-116
NCI/ADR-RES = tested on: NCI/ADR-RES
M14 = tested on: M14

Structure (SMILES) | GI50 (IGROV-1) | GI50 (SK-MEL-5) | GI50 (SNB-19) | GI50 (HCC 2998) | GI50 (OVCAR-8) | GI50 (NCI-H460) | GI50 (COLO 205) | GI50 (Hs-578T) | GI50 (MDA-N) | GI50 (U-251) | GI50 (HL-60) | GI50 (BT-549) | GI50 (OVCAR-4) | GI50 (SF-539) | GI50 (Malme-3M) | GI50 (RPMI-8226) | GI50 (A549) | GI50 (NCI-H226) | GI50 (A498) | GI50 (NCI-H522) | further results
COC(C)(C)C1(O)CCC(C)CC1=O (configuration not stated) | > 100 µM (inactive) | > 100 µM (inactive) | > 100 µM (inactive) | > 100 µM (inactive) | > 100 µM (inactive) | > 100 µM (inactive) | > 100 µM (inactive) | > 100 µM (inactive) | > 100 µM (inactive) | > 100 µM (inactive) | 85.7 µM (inactive) | > 100 µM (inactive) |  |  |  |  |  |  |  |  | GI50 (HT-29): > 100 µM (inactive); GI50 (PC-3): > 100 µM (inactive); GI50 (SR): > 100 µM (inactive); GI50 (OVCAR-3): > 100 µM (inactive); GI50 (HOP-92): > 100 µM (inactive); GI50 (786-0): > 100 µM (inactive); GI50 (RXF 393): > 100 µM (inactive); GI50 (CAKI-1): > 100 µM (inactive); GI50 (SK-OV-3): > 100 µM (inactive); GI50 (UO-31): > 100 µM (inactive); GI50 (MOLT-4): > 100 µM (inactive)
COc1ccc(CC2C(=O)OC(C)C(NC(=O)c3c4nc5c(C(=O)NC6C(=O)NC(C(C)C)C(=O)N7CCCC7C(=O)N(C)CC(=O)N(C)C(Cc7ccc(OC)cc7)C(=O)OC6C)ccc(C)c5oc-4c(C)c(=O)c3N)C(=O)NC(C(C)C)C(=O)N3CCCC3C(=O)N(C)CC(=O)N2C)cc1 (configuration not stated) (I: TVP[Sar][NMeY](Me) / II: TVP[Sar][NMeY](Me); ester I:1-I:C, II:1-II:C; linker I:N-II:N via Actinocin(1to9); configuration not given here) |  | 0.0119 µM (active) | 0.00637 µM (active) | < 10 nM (active) and 8.04 nM (active) | 0.00859 µM (active) |  |  |  | 0.00811 µM (active) |  |  | 0.0208 µM (active) | < 10 nM (active) | < 10 nM (active) and 7.08 nM (active) | < 10 nM (active) and 10.6 nM (active) | 0.0121 µM (active) | 0.00527 µM (active) | < 10 nM (active) and 14.9 nM (active) | < 10 nM (active) and 14.9 nM (active) |  | GI50 (SK-MEL-28): 0.00964 µM (active); GI50 (PC-3): < 10 nM (active) and 10 nM (active); GI50 (SNB-75): 0.00764 µM (active); GI50 (UACC-62): 0.0107 µM (active); GI50 (OVCAR-3): < 10 nM (active) and 9.44 nM (active); GI50 (DU-145): 0.0121 µM (active); GI50 (UACC-257): 0.0155 µM (active); GI50 (SF-295): 0.0199 µM (active); GI50 (HOP-62): 0.00953 µM (active); GI50 (ACHN): 0.0102 µM (active); GI50 (MDA-MB-435): 0.00923 µM (active); GI50 (KM12): 5.16 nM (active); GI50 (NCI-H23): 0.0104 µM (active); GI50 (SW-620): < 10 nM (active) and 13.6 nM (active); GI50 (SN12C): 5.3 nM (active); GI50 (T47D): 0.0094 µM (active)
Cc1c2oc3c(C)ccc(C(=O)NC4C(=O)NC(C(C)C)C(=O)N5CCCC5C(=O)N(C)CC(=O)N(C)C(Cc5ccc(O)cc5)C(=O)OC4C)c3nc-2c(C(=O)NC2C(=O)NC(C(C)C)C(=O)N3CCCC3C(=O)N(C)CC(=O)N(C)C(Cc3ccc(O)cc3)C(=O)OC2C)c(N)c1=O (configuration not stated) (I: TVP[Sar][NMeY] / II: TVP[Sar][NMeY]; ester I:1-I:C, II:1-II:C; linker I:N-II:N via Actinocin(9to1); configuration not given here) | 6.05 nM (active) and 7.46 nM (active) |  |  |  |  |  |  | 3.71 nM (active) and 4.25 nM (active) |  |  | 4.3 nM (active) and 5.39 nM (active) | 15 nM (active) and 17.3 nM (active) | 43 nM (active) and 42.6 nM (active) | 12.4 nM (active) and 15.3 nM (active) |  | 8.59 nM (active) and 7.03 nM (active) |  | 20.6 nM (active) and 39.3 nM (active) |  | 2.25 nM (active) and 4.33 nM (active) | GI50 (SK-MEL-2): 9.06 nM (active) and 13.1 nM (active); GI50 (KM12): 13.2 nM (active) and 17.1 nM (active); GI50 (SN12C): 5.69 nM (active) and 11 nM (active); GI50 (SF-268): 11 nM (active) and 17.7 nM (active); GI50 (MCF7): 1.89 nM (active) and 2.16 nM (active)
CCN(CC)C(=S)SS(=O)(=O)c1ccc([N+](=O)[O-])cc1 |  | 2.77 µM (inactive) | 76.7 µM (inactive) |  | 20.4 µM (inactive) | 96.2 µM (inactive) | 19.9 µM (inactive) |  |  | 14.5 µM (inactive) |  | 36.8 µM (inactive) |  | 21.2 µM (inactive) | 14.9 µM (inactive) | 12.8 µM (inactive) | 1.18 µM (inactive) |  | > 100 µM (inactive) | 28.2 nM (active) | GI50 (LOX IMVI): 17.5 µM (inactive); GI50 (OVCAR-5): > 100 µM (inactive); GI50 (UACC-62): 27.4 µM (inactive); GI50 (SR): 0.148 µM (active); GI50 (SK-MEL-2): 48.3 µM (inactive); GI50 (786-0): 16.7 µM (inactive); GI50 (K562): 19.4 µM (inactive); GI50 (CAKI-1): 18.8 µM (inactive); GI50 (SK-OV-3): > 100 µM (inactive); GI50 (EKVX): > 100 µM (inactive); GI50 (UO-31): 21.7 µM (inactive); GI50 (NCI-H23): 56.8 µM (inactive); GI50 (T47D): 43.2 µM (inactive)
O=C(O)c1ccccc1/N=N\c1c(O)c(S(=O)(=O)O)cc2cc(S(=O)(=O)O)ccc12 |  | 4.72 µM (inactive) | 2.81 µM (inactive) | > 100 µM (inactive) |  | > 100 µM (inactive) | 1.2 µM (inactive) | 1.97 µM (inactive) | 2.41 µM (inactive) | 1.48 µM (inactive) | < 0.01 µM (active) | 0.201 µM (active) | 96.2 nM (active) |  | 0.0711 µM (active) | 1.35 µM (inactive) | 1.82 µM (inactive) | 23.9 nM (active) | > 100 µM (inactive) | 23.1 nM (active) | GI50 (LOX IMVI): > 100 µM (inactive); GI50 (MDA-MB-435): 2.65 µM (inactive); GI50 (HCT-116): 1.63 µM (inactive); GI50 (NCI/ADR-RES): 1.06 µM (active); GI50 (M14): 3.83 µM (inactive); GI50 (SW-620): 1.85 µM (inactive); GI50 (SF-268): 1.8 µM (inactive); GI50 (MCF7): > 100 µM (inactive)
